Where a name gives a salt, the structure may show the parent alone. Read-outs that look alike come from different tables or passages of the source.

In data set [1] the test system is rabbit jejunum. Briefly: Spontaneous peristaltic activity on rabbit jejunum. Conditions: for Emax / EC50 / EC (maximum effect): Oryctolagus cuniculus; for Emax: read-out: maximum effect % (max. increase of extent of the contractions); for EC50: read-out: CE50 (concentration able to produce 50% of the maximum effect); for EC (maximum effect): read-out: concentration required to obtain the maximum effect; for effect on the spontaneous peristalsis in comparison with cisapride: rabbit jejunum, examples 1 and 2 at greater concentrations than the reference, example 6 at identical concentrations. On the procedure: (§1) In vitro tests were carried out to evaluate the effect of the compounds of formula I and some of their pharmacologically acceptable salts on physiological peristalsis, on the action of the histamine, serotonine and acetylcholine.
The action on physiological peristalsis was evaluated on an isolated rabbit jejunum preparation, according to the method reported by Magnus J. in Pfluegers Arch. Gen. Physiol.
The rabbit jejunum was used to evaluate the extent of the spontaneous peristaltic contractions in the presence and in the absence of the derivatives being studied.

The subject of data set [2] is histamine on guinea-pig ileum. Put plainly: Influence on the activity of histamine on guinea-pig ileum. As to conditions: isolated guinea-pig ileum. Here is the method:
In vitro tests were carried out to evaluate the effect of the compounds of formula I and some of their pharmacologically acceptable salts on physiological peristalsis, on the action of the histamine, serotonine and acetylcholine. The effect on the histamine was evaluated on a preparation of guinea-pig ileum according to the method described by the above-mentioned authors. […] The rabbit jejunum was used to evaluate the extent of the spontaneous peristaltic contractions in the presence and in the absence of the derivatives being studied. On the guinea-pig ileum the cumulative dose-response curve to histamine were recorded in the presence of increasing concentrations of the products being examined.

Data set [3] concerns acetylcholine on the rat ascending colon. Put plainly: Influence on the acetylcholine activity on the rat ascending colon. Also noted: species or system Wistar rat. Conditions: isolated rat ascending colon. On the procedure:
as §1
Finally the effect on the acetylcholine was evaluated on the ascending colon of a rat, according to the method of Gaddum J. H. and Horton E. W. reported in Br. J. Pharmacol. Chemother. 14, 117, 1959.
The effect of the products on the contracturing action of the acetylcholine was studied on the isolated ascending colon of rat, taken from Wistar rat sacrificed after 24 hours fasting, washed with De Jalon fluid at 27° C. and perfused with the same oxygenated fluid (95% oxygen and 5% carbon dioxide) at the temperature of 27° C. In this case too the cumulative dose-response curves were recorded in the presence of increasing concentrations of the products being studied.

Data set [4] concerns serotonine on the fornix of the rat stomach. Put plainly: Influence on the serotonine activity on the fornix of the rat stomach. Also noted: species or system Wistar rat. Here is the method: as §1
The effect on the serotonine was evaluated on the fornix of the stomach of a rat according to the method of Vane J. R. in Br. J. Pharmacol. Cheroother. 12, 344, 1957.
The action on the serotonine was evaluated on the fornix of the stomach of rat, also taken from Wistar rat sacrificed after 24 hours fasting, following the technique reported by Vane J. R. in Br. J. Pharmacol. Chemoter. 12, 344, 1957, as previously described.

In data set [5] the test system is intestinal transit. Briefly: Intestinal transit of an opaque meal in the mouse (prokinetic action). Conditions: for Variation % with respect to the controls / ED50: mouse; for Variation % with respect to the controls: dose five times greater than ED50; for ED50: read-out: DE50 (the source's name). The class given is in vivo, Swiss albino mice. Here is the method:
(§2) In tables 5, 6, 7 and 8 the significance was determined by means of Student's test on absolute values with respect to the relative controls using 10 animals per group in tests 5, 6 and 7.
The prokinetic action was evaluated in vivo on Swiss albino mice determining the influence of the products on the intestinal transit of an opaque meal, according to the method described by Macht D. I. and Barba-Gose J. in J. Amer. Pharm. Ass. 20, 558, 1931 and later by Witkin L. B. et al. in J. Pharmacol. Exp. Ther. […]
The method involved the administration of an opaque meal to the mice after a 24 hour fast, through gastric probe, 15 minutes after the administration of the product.
After sacrificing the animals 20 minutes after the administration of the opaque meal, the percentage of the length of the intestine travelled by the opaque meal was calculated.

The subject of data set [6] is gastric dumping. Put plainly: Test of gastric dumping in the rat. The format is in vivo. As to conditions: for Increase % of the gastric dumping with respect to the controls: 30' before, measured 20' after the coloured meal, * = p<0.05. On the procedure:
as §2
Within the gastro-duodenal tract, the prokinetic activity was evaluated by means of the test of gastric dumping in the rat, according to the method reported by Scarpignato C. in J. Pharmacol. 14, 261, 1983.

For data set [7], the system named is emesis induced with cisplatin. Briefly: Test of vomit from cisplatin in the pigeon (antiemetic activity). The class given is in vivo. As to conditions: one hour before cisplatin 7.5 mg/kg; for Acts of vomit (average/anim.) / Animals that vomit % / Latency of 1st act of vomit: * = p<0.05. Here is the method: as §2
Finally the antiemetic activity was evaluated in the pigeon after induction of emesis with cisplatin, according to the method of Preziosi P. et al. in Eur. J. Pharmacol. 221, 343, 1992.

A short description of data set [8]: Study of acute toxicity (LD50). The format is in vivo. As to conditions: rat, in vivo, iv; Sprague-Dawley rats of both sexes, observation period of 14 days. Here is the method:
(§3) The acute toxicity (LD50)of the derivatives described in this invention was evaluated according to the method reported by Lietchfield J. T. and Wilcoxon F. in J. Pharmacol. Exp. Ther. 96, 99, 1949, on Sprague-Dawley rats of both sexes, over an observation period of 14 days from the day of treatment.

Data set [9] concerns behaviour. Put plainly: Irwin's test (effects as regards behaviour). The format is in vivo. Conditions: rats, 20 mg/Kg i.p. From the text:
Finally, preliminary studies on the effects as regards behaviour have been performed by means of Irwin's test, according to the method reported by Irwin S. in Gordon Res. Conf. on Medicinal Chem. 1959, 133, 1959, modified in that rats were used instead of mice.

Data set [10] concerns Sprague-Dawley rats. Put plainly: Study of acute toxicity (LD50). The class given is in vivo. Conditions: Sprague-Dawley rats of both sexes, i.v., observation period of 14 days; 20160 min. Here is the method:
as §3

For data set [11], the system named is cholinesterase. Conditions: cited from earlier work.
The subject of data set [12] is dopaminergic receptors D2. As to conditions: cited from earlier work.
Data set [13] concerns gastro-intestinal motility. As to conditions: cited from earlier work.
Setting [14] is: isolated rabbit jejunum, spontaneous peristaltic contractions.
The mark [15] stands for this setting: 9.8 μg/Kg p.o., 15' before the opaque meal.
Where [16] appears, read: Mus musculus, po, 9.8 μg/Kg p.o., 15' before the opaque meal, * = p<0.05, read-out: variation in % with respect to the controls.

For `CCN(CC)CCN1CNc2ccc(Cl)cc2C1=O.O=C(O)C(=O)O` [Example 1, 6-Chloro-3-[2-(diethylamino)ethyl]-2,3-dihydro-4(1H)-quinazolinone oxalate], the Emax in data set [1] (setting [14]) came out at 75%. Moreover, the EC50 in [1] (isolated rabbit jejunum) stood at 3000 nM. Further, in data set [1] (isolated rabbit jejunum), the EC (maximum effect) worked out at 10 µM. The “effect on the spontaneous peristalsis in comparison with cisapride” value in data set [1] is given as “greater than that of cisapride”. The “active concentration (histamine)” value in data set [2] amounted to 100 µM. Besides, the “active concentration (acetylcholine)” value in data set [3] came to 100 µM. Also, the “active concentration (serotonine)” value in data set [4] stood at 10 µM. In addition, the “effect on the serotonine activity” value in data set [4] (oxalate) was “increase the effect of the serotonine”. In [5] (setting [15]), the “% of intestine (from pylorus to anus) travelled by the opaque meal” value (“% of intestine” below) came to 52.0%. Moreover, in [5] (setting [16]), the change in vivo at 0.0098 mg/kg amounted to 34.4%. The “Variation % with respect to the controls” value in data set [5] (* = p<0.05) came to 33.7%. Moreover, the ED50 in [5] (po, 15' before the opaque meal) came to 0.0098 mg/kg. For the same compound, the “Increase % of the gastric dumping with respect to the controls” value amounted to 27.6% in data set [6] (12.5 μg/kg); 81.0% in [6] (50.0 μg/kg); 40.0% in [6] (100.0 μg/kg); 45.7% in data set [6] (200.0 μg/kg); 34.0% in [6] (400.0 μg/kg). Further, the “level of activity on the gastric dumping” value in data set [6] (rat, text statement on table 7) is recorded as “high level of activity on the gastric dumping”. Besides, the “Variation % of the time of latency with respect to the controls” value was -8.3% in [7] (50.0 μg/kg i.m.) and “+14.7%” in [7] (100.0 μg/kg i.m.). The “Acts of vomit (average/anim.)” value is 5.0 average/anim in data set [7] (50.0 μg/kg i.m.) and 4.0 average/anim in [7] (100.0 μg/kg i.m.). The “Animals that vomit %” value in data set [7] (50.0 μg/kg i.m.) and in [7] (100.0 μg/kg i.m.) was 100.0% each time. Further, the “Latency of 1st act of vomit” value is 77.5 min in data set [7] (50.0 μg/kg i.m.) and 97.0 min in data set [7] (100.0 μg/kg i.m.). In data set [8], this compound returned an LD50 at 336 h of 100 mg/kg.

On to `CCN(CC)CCN1CN(C)c2ccc(Cl)cc2C1=O` [Example 2, 6-Chloro-3-[2-(diethylamino)ethyl]-2,3-dihydro-1-methyl-4(1H)-quinazolinoneoxalate], for which, in data set [1] (setting [14]), the Emax came to 73%. Moreover, in data set [1] (isolated rabbit jejunum), the EC50 amounted to 300 nM and the EC (maximum effect) was found to be 10 µM. Besides, in data set [1], the “effect on the spontaneous peristalsis in comparison with cisapride” value is “greater than that of cisapride”. In addition, in [2], the “active concentration (histamine)” value is 100 µM. Moreover, the “active concentration (acetylcholine)” value in data set [3] was determined as 100 µM. Moreover, in [4], the “active concentration (serotonine)” value stood at 10 µM and the “effect on the serotonine activity” value was “increase the effect of the serotonine”. Moreover, in [5] (26.5 μg/Kg p.o., 15' before the opaque meal), the “% of intestine” value is reported as 38.9%. Besides, in [5] (Mus musculus, po, 26.5 μg/Kg p.o., 15' before the opaque meal, * = p<0.05, read-out: variation in % with respect to the controls), the change in vivo at 0.0265 mg/kg was found to be 0.5%. Also, the ED50 in data set [5] (po, 15' before the opaque meal) stood at 0.0265 mg/kg. This compound also gave an LD50 at 336 h in [8] of 75 to 80 mg/kg.

`CCN(CC)CCCN1CNc2ccc(Cl)cc2C1=O` [Example 3, 6-Chloro-3-3-(diethylamino)propyl-2,3-dihydro-4(1H)-quinazolinone oxalate]: in data set [1] (setting [14]), the Emax came to 25%. In addition, in data set [1] (isolated rabbit jejunum), the EC50 worked out at 10 nM and the EC (maximum effect) worked out at 1 µM. Also, the “effect on the serotonine activity” value in data set [4] is reported as “act as competitive antagonists”. Also, the “% of intestine” value in data set [5] (setting [15]) came out at 45.0%. Moreover, the change in vivo at 0.0098 mg/kg in data set [5] (setting [16]) is 11.1%. Besides, the “Variation % with respect to the controls” value in data set [5] (* = p<0.05) was found to be 6.4%. The “variations with respect to the controls in behavioural parameters (Irwin's test)” value in data set [9] was “no significant variations with respect to the controls”.

Compound `CCN(CC)CCN1CN(C)c2ccc(Cl)cc2C1=O` [Example 11, 6-Chloro-3-[2-(diethylamino)ethyl]-2,3-dihydro-1-methyl-4(1H)-quinazolinonecitrate] had an LD50 in data set [10] of 80 mg/Kg/i.v.

With `COc1cc(N)c(Cl)cc1C(=O)NC1CCN(CCCOc2ccc(F)cc2)CC1OC` (centres unmarked) [cisapride, reference compound], the Emax in [1] came to 40%. Besides, the EC50 in data set [1] (isolated rabbit jejunum) is 20 nM. The ED50 in data set [5] (po, 15' before the opaque meal) is 0.019 mg/kg. In data set [8], this compound displayed an LD50 at 336 h of 35 mg/kg. In addition, the cholinesterase inhibition entry in data set [11] is recorded as “practically no”.

Regarding `COc1cc(N)c(Cl)cc1C(=O)NC1CCN(Cc2ccccc2)CC1` [clebopride], in [12], the “activity on the dopaminergic receptors D2” value is on record as “a fair amount of activity on the dopaminergic receptors D2”. The “gastro-intestinal motility / prokinetic activity” value in [13] is “having prokinetic activity”.

In the case of `CCN1CC(NC(=O)c2cc(Cl)c(N)cc2OC)CN1CC` [dazopride], the “activity on the dopaminergic receptors D2” value in data set [12] is reported as “a fair amount of activity on the dopaminergic receptors D2”. For the same compound, the “gastro-intestinal motility / prokinetic activity” value in [13] is reported as “having prokinetic activity”.

On to `CCN(CC)CCNC(=O)c1cc(Cl)c(N)cc1OC` [metoclopramide], for which the “activity on the dopaminergic receptors D2” value in data set [12] is “both central and peripheral antagonistic activity on the dopaminergic receptors D2”. The “gastro-intestinal motility / prokinetic activity” value in [13] is “stimulates the motility of the upper gastro-intestinal tract”.

The values are drawn from patent US5446152A, “Heterocyclic compounds active in gastro-intestinal pathologies” (priority 1993, dated 1995).
